Experimental data: patent US20240239788A1, “SMALL MOLECULE INHIBITORS OF KRAS G12D MUTANT” (Merck Sharp & Dohme LLC, priority 2021, published 2024)
Where a name gives a salt, the structure may show the parent alone. Read-outs that look alike come from different tables or passages of the source.

Columns and labels:
[1] = molecular target: KRAS protein containing G12D mutation (Homo sapiens (Human), UniProt P01116, G12D); experiment: SOS-catalyzed nucleotide exchange assay (GNE), TR-FRET; assay type: biochemical; settings: biotinylated KRAS G12D, SOS and GTP, 60-minute incubation
KRAS protein containing G12D mutation, sequence (P01116 other isoform, or with tags, fused parts or gaps G12D (already in the parent)): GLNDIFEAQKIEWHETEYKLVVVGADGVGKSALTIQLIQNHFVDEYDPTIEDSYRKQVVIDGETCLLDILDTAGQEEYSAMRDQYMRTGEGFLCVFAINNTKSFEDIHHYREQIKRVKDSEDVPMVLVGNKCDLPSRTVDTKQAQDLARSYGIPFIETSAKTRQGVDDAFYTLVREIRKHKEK
Protocol: Compounds are added to this complex and then after a 60-minute incubation time the mixture is treated with SOS and unlabeled GTP. Small molecule inhibitors stabilize the Bodipy-GDP complex whereas the untreated protein rapidly exchanges Bodipy-GDP for unlabeled GTP resulting in reduced TR-FRET signal.
This solution is referred to as biotinylated KRAS G12D stock solution.

[2] = system: AsPC-1 cells containing homozygous KRAS-G12D activating mutation; experiment: Cellular phospho-ERK assay with 10% FBS (Examples 107a-256); assay type: cell-based
Protocol: 5% CO2 for 2 hours. […] Assay plates were read on a EnVision Multimode Plate Reader (PerkinElmer) and the ratio of p-Erk vs total Erk in each well was used as the final readout.

[3] = Homo sapiens, ASPC1, 2 h, read-out: IC50 (nM) pERK (cell with FBS 10%), AsPC-1 cells, 10% fetal bovine serum, 2 hours, ratio of p-Erk vs total Erk
[4] = read-out: IC50 (nM) pERK (cell with FBS 10%), AsPC-1 cells, 10% fetal bovine serum, 2 hours, ratio of p-Erk vs total Erk

SMILES | IC50 [1] [nM] | IC50 [2, 3] [nM] | IC50 [2, 4] [nM] | IC50 ([2]; read-out: IC50 (nM) pERK (cell with FBS 10%), AsPC-1 cells, 10% fetal bovine serum, 2 hours, ratio of p-Erk vs total Erk, HCl) [nM]
Cc1cc(N)nc(-c2c(F)cc3c(N4CC5CCC(C4)N5)nc(OC[C@@]45CCCN4C[C@H](F)C5)nc3c2F)c1C(F)(F)F (mixture of isomers) [Ex. 193, 6-(4-((1R,5S)-3,8-diazabicyclo[3.2.1]-octan-3-yl)-6,8-difluoro-2-(((2R,7aS)-2-fluorotetrahydro-1H-pyrrolizin-7a(5H)-yl)methoxy)quinazo-lin-7-yl)-4-methyl-5-(trifluoromethyl)pyr-idin-2-amine] | 10.3 | 187 | – | –
C[C@]12CCC(CN(c3nc(OC[C@@]45CCCN4C[C@H](F)C5)nc4c(F)c(-c5cccc6cccc(Cl)c56)c(F)cc34)C1)N2 (mixture of isomers) [Ex. 212, 7-(8-chloronaphthalen-1-yl)-6,8-difluoro-2-(((2R, 7aS)-2-fluorotetrahydro-1H-pyrrolizin-7a(5H)-yl)-methoxy)-4-((1S,5R)-1-methyl-3,8-diazabicyclo-[3.2.1]octan-3-yl)quinazoline, 2TFA] | 180 | 9060 | – | –
C[C@]12CCC(CN(c3nc(OC[C@]4(CN5CCC(CO)C5)CC4(F)F)nc4c(F)c(-c5cc(O)cc6cccc(Cl)c56)c(F)cc34)C1)N2 (mixture of isomers) [Ex. 218, 5-chloro-4-(2-(((1R)-2,2-difluoro-1-((3-(hydroxymethyl)pyrrolidin-1-)-methyl)cyclopropyl)methoxy)-6,8-difluoro-4-((1S,5R)-1-methyl-3,8-diazabicyclo[3.2.1]octan-3-yl)quinazolin-7-yl)naphthalen-2-ol] | 6.54 | 1550 | – | –
C[C@]12CC[C@H](CN(c3nc(OCC4(CN5CCCC(O)(C(F)(F)F)C5)CC4)nc4c(F)c(-c5cc(O)cc6cccc(Cl)c56)c(F)cc34)C1)N2 (mixture of isomers) [Ex. 206, rac-1-((1-(((7-(8-chloro-3-hydroxynaphthalen-1-yl)-6,8-difluoro-4-((1S,5R)-1-methyl-3,8-diazabicyclo-[3.2.1]octan-3-yl)quinazolin-2-yl)oxy)methyl)cyclo-propyl)methyl)-3-(trifluoromethyl)piperidin-3-ol] | 1340 | 30000 | – | –
C[C@]12CC[C@H](CN(c3nc(OCC4(CN5CCCC(O)(C(F)(F)F)C5)CC4)nc4c(F)c(-c5cc(O)cc6cccc(Cl)c56)c(F)cc34)C1)N2 (mixture of isomers) [Ex. 207, rac-1-((1-(((7-(8-chloro-3-hydroxynaphthalen-1-yl)-6,8-difluoro-4-((1S,5R)-1-methyl-3,8-diazabicyclo-[3.2.1]octan-3-yl)quinazolin-2-yl)oxy)methyl)cyclo-propyl)methyl)-3-trifluoromethyl)piperidin-3-ol] | 767 | – | 30000 | –
Cc1cc2[nH]nc(C#N)c2c(-c2c(F)cc3c(N4C[C@H]5CC[C@@H](C4)N5)nc(OC[C@@]45CCCN4C[C@H](F)C5)nc3c2F)c1C(F)(F)F (single isomer, unassigned) [227b] | 1.02 | – | 32.6 | –
C#Cc1c(F)ccc2cccc(-c3c(F)cc4c(N5CC6CC[C@@](C)(C5)N6)nc(OCC56CCCN5C(COC(=O)N(C)C)CC6)nc4c3F)c12 (single isomer, unassigned) [242a] | 1.15 | – | 135 | –
C#Cc1c(F)ccc2cccc(-c3c(F)cc4c(N5CC6CC[C@@](C)(C5)N6)nc(OCC56CCCN5C(COC(=O)N(C)C)CC6)nc4c3F)c12 (single isomer, unassigned) [242b] | 93.5 | – | 1080 | –
Cc1cc(N)nc(-c2c(Cl)cc3c(N4CC5CC(O)C(C4)N5)nc(OC[C@@]45CCCN4C[C@H](F)C5)nc3c2F)c1C(F)(F)F (single isomer, unassigned) [249b] | 1.52 | 360 | – | –
Cc1nc2[nH]nc(C)c2c(-c2c(F)cc3c(N4C[C@H]5CC[C@@H](C4)N5)nc(OC[C@@]45CCCN4C[C@H](F)C5)nc3c2F)c1C(F)(F)F (single isomer, unassigned) [250b] | 1.54 | – | 63.1 | –
C#Cc1c(F)ccc2cc(N)nc(-c3c(F)cc4c(N5C[C@H]6CC[C@@H](C5)N6)nc(OC[C@@]56CCCN5C[C@H](F)C6)nc4c3F)c12 (single isomer, unassigned) [252a] | 0.85 | 64.3 | – | –
CN(C)CC1(COc2nc(N3C[C@H]4CC[C@@](C)(C3)N4)c3cc(F)c(-c4cc(O)cc5ccccc45)c(F)c3n2)CC1C(=O)O (single isomer, unassigned) [Ex. 107a] | 648 | – | 30000 | –
Cc1cc2[nH]ncc2c(-c2c(F)cc3c(N4C[C@H]5CC[C@@](C)(C4)N5)nc(OC[C@@]45CCCN4C[C@H](F)C5)nc3c2F)c1OC(F)(F)F (single isomer, unassigned) [Ex. 126a] | 8.59 | – | 1240 | –
Cc1cc2[nH]ncc2c(-c2c(F)cc3c(N4C[C@H]5CC[C@@](C)(C4)N5)nc(OC[C@@]45CCCN4C[C@H](F)C5)nc3c2F)c1OC(F)(F)F (single isomer, unassigned) [Ex. 126b] | 67.9 | – | 3460 | –
Cc1cc2[nH]nc(C)c2c(-c2c(F)cc3c(N4CC5CCC(C4)N5)nc(OC[C@@]45CCCN4C[C@H](F)C5)nc3c2F)c1C(F)(F)F (single isomer, unassigned) [Ex. 128a] | 1.28 | – | 43.4 | –
Cc1cc2[nH]nc(C)c2c(-c2c(F)cc3c(N4CC5CCC(C4)N5)nc(OC[C@@]45CCCN4C[C@H](F)C5)nc3c2F)c1C(F)(F)F (single isomer, unassigned) [Ex. 128b] | 232 | – | 2850 | –

SMILES | IC50 [1] [nM] | IC50 [2, 3] [nM] | IC50 [2, 4] [nM] | IC50 ([2]; read-out: IC50 (nM) pERK (cell with FBS 10%), AsPC-1 cells, 10% fetal bovine serum, 2 hours, ratio of p-Erk vs total Erk, HCl) [nM]
C[C@]12CC[C@H](CN(c3nc(OC[C@@]45CCCN4C[C@H](F)C5)nc4c(F)c(-c5cc(O)cc(Cl)c5Cl)c(F)cc34)C1)N2 (single isomer, unassigned) [Ex. 129a, HCl] | 17.7 | 2810 | – | –
C[C@]12CC[C@H](CN(c3nc(OC[C@@]45CCCN4C[C@H](F)C5)nc4c(F)c(-c5cc(O)cc(Cl)c5Cl)c(F)cc34)C1)N2 (single isomer, unassigned) [Ex. 129b, HCl] | 14.1 | – | – | 3010
Nc1nc2c(-c3c(Cl)cc4c(N5CC6CCC(C5)N6)nc(OC[C@@]56CCCN5C[C@H](F)C6)nc4c3F)c(F)cc(F)c2o1 (single isomer, unassigned) [Ex. 133a] | 61.4 | – | 3470 | –
Nc1nc2c(-c3c(Cl)cc4c(N5CC6CCC(C5)N6)nc(OC[C@@]56CCCN5C[C@H](F)C6)nc4c3F)c(F)cc(F)c2o1 (single isomer, unassigned) [Ex. 133b] | 1.16 | – | 410 | –
C#Cc1c(F)ccc2cccc(-c3c(F)cc4c(N5CC6CCC(C5)N6)nc(OC[C@@]56CCCN5[C@H](CO)CC6)nc4c3F)c12 (single isomer, unassigned) [Ex. 142] | 1.57 | 384 | – | –
C#Cc1cccc2cc(O)c(Cl)c(-c3c(F)cc4c(N5CC6CC[C@@](C)(C5)N6)nc(OC[C@@]56CCCN5C[C@H](F)C6)nc4c3F)c12 (single isomer, unassigned) [Ex. 143a] | 0.86 | – | 53.5 | –
C#Cc1cccc2cc(O)c(Cl)c(-c3c(F)cc4c(N5CC6CC[C@@](C)(C5)N6)nc(OC[C@@]56CCCN5C[C@H](F)C6)nc4c3F)c12 (single isomer, unassigned) [Ex. 143b] | 74.5 | – | 2500 | –
N#Cc1c(N)sc2c(F)ccc(-c3c(F)cc4c(N5C[C@H]6CC[C@@H](C5)N6)nc(OC[C@@]56CCCN5C[C@H](F)C6)nc4c3F)c12 (single isomer, unassigned) [Ex. 144a] | 2.03 | – | 83.9 | –
N#Cc1c(N)sc2c(F)ccc(-c3c(F)cc4c(N5C[C@H]6CC[C@@H](C5)N6)nc(OC[C@@]56CCCN5C[C@H](F)C6)nc4c3F)c12 (single isomer, unassigned) [Ex. 144b] | 20 | – | 392 | –
Nc1cc(F)c(C(F)(F)F)c(-c2c(F)cc3c(N4CC5CCC(C4)N5)nc(OC[C@@]45CCCN4C[C@H](F)C5)nc3c2F)c1F (single isomer, unassigned) [Ex. 145a] | 1270 | – | 19400 | –
Nc1cc(F)c(C(F)(F)F)c(-c2c(F)cc3c(N4CC5CCC(C4)N5)nc(OC[C@@]45CCCN4C[C@H](F)C5)nc3c2F)c1F (single isomer, unassigned) [Ex. 145b] | 14.1 | – | 358 | –
Cc1cc(N)c(F)c(-c2c(F)cc3c(N4CC5CCC(C4)N5)nc(OC[C@@]45CCCN4C[C@H](F)C5)nc3c2F)c1C(F)(F)F (single isomer, unassigned) [Ex. 146a] | 1.56 | 185 | – | –
C#Cc1cccc2scc(-c3c(F)cc4c(N5CC6CC[C@@](C)(C5)N6)nc(OCC5(CN6CCOCC6)CC5)nc4c3F)c12 (single isomer, unassigned) [Ex. 147a] | 400 | 16600 | – | –
C#Cc1cccc2scc(-c3c(F)cc4c(N5CC6CC[C@@](C)(C5)N6)nc(OCC5(CN6CCOCC6)CC5)nc4c3F)c12 (single isomer, unassigned) [Ex. 147b] | 429 | – | 10200 | –
C#Cc1cccc2cc(N)nc(-c3c(F)cc4c(N5CC6CCC(C5)N6)nc(OC[C@@]56CCCN5C[C@H](F)C6)nc4c3F)c12 (single isomer, unassigned) [Ex. 148a] | 13.6 | – | 235 | –
C#Cc1cccc2cc(N)nc(-c3c(F)cc4c(N5CC6CCC(C5)N6)nc(OC[C@@]56CCCN5C[C@H](F)C6)nc4c3F)c12 (single isomer, unassigned) [Ex. 148b] | 751 | – | 8550 | –
